Literature values as cited in patent US20070213318A1, “C[…] WITH IMPROVED BLOOD-BRAIN BARRIER PE[…] THE TREATMENT OF DISEASES ACCOMPANIED BY COGNITIVE IMPAIRMENT” (priority 2006, published 2007).
Like-named read-outs stand apart in the source and are kept apart here.

Legend:
[1] = tested on: human nAChR subtypes; conditions: below the concentration range at which AChE inhibition takes place

In the case of `COc1ccc2c3c1O[C@H]1C[C@@H](O)C=C[C@@]31CCN(C)C2` [Galanthamine], the “tissue to plasma ratio (T/P)” value (female rat spleen) is given as roughly 20, the “tissue to plasma ratio (T/P)” value (male and female rat, kidney) is given as 10-15 and the “tissue to plasma ratio (T/P)” value (male and female rat, salivary and adrenal gland) is given as 7-14. The “tissue to plasma ratio (T/P)” value (rat, lung, liver, heart, skeletal muscle and testes) was 2-4 and the “concentrations at which the APL effect is observed” value [1] was “submicromolar concentrations”.
